What all share (type): functional
In assay [1] the target is Cyclin-dependent kinase 7 (Homo sapiens, UniProt P50613).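 Also: value comes from a kinome-wide kinase profiling panel in which CDK7 is one member.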
Assay [2] has as its target Inhibitor of nuclear factor kappa-B kinase subunit epsilon (Homo sapiens, UniProt Q14164). Kind of assay: Navigating the Kinome. Panel member name: IKBKE.
Assay [3] concerns the target Serine/threonine-protein kinase pim-1 (Homo sapiens, UniProt P11309).
Another assay has as its target Activated CDC42 kinase 1 (Homo sapiens, UniProt Q07912). Kind of assay: Navigating the Kinome. Panel member name: ACK1.
Assay [4] deals with Cyclin-dependent kinase 8 (Homo sapiens, UniProt P49336). Description: Navigating the Kinome. Panel member name: CDK8.
Sequence of Cyclin-dependent kinase 8 (P49336 whole entry): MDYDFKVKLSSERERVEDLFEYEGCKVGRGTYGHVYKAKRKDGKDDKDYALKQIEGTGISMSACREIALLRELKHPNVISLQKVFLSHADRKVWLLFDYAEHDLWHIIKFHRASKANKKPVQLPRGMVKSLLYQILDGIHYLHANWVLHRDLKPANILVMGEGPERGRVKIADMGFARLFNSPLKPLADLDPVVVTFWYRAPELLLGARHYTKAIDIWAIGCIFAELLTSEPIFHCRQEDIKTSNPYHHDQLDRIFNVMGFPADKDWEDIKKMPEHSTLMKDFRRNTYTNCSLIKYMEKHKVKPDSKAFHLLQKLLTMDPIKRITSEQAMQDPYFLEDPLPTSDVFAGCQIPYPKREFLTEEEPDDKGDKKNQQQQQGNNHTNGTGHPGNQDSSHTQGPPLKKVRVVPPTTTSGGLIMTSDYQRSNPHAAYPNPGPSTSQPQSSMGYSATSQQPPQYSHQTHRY
The target of assay [5] is Ribosomal protein S6 kinase beta-1 (Homo sapiens, UniProt P23443).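 Also: measured as one member of a kinome-wide profiling panel.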
Assay [6] addresses Calcium/calmodulin-dependent protein kinase kinase 2 (Homo sapiens, UniProt Q96RR4). Description: Navigating the Kinome. Panel member name: CAMKK2.
In assay [7] the target is Cyclin-dependent kinase 19 (Homo sapiens, UniProt Q9BWU1). Description: Navigating the Kinome. Panel member name: CDC2L6.
In another assay the target is Focal adhesion kinase 1 (Homo sapiens, UniProt Q05397).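 Also: measured as one member of a kinome panel.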
Sequence of Focal adhesion kinase 1 (Q05397 whole entry): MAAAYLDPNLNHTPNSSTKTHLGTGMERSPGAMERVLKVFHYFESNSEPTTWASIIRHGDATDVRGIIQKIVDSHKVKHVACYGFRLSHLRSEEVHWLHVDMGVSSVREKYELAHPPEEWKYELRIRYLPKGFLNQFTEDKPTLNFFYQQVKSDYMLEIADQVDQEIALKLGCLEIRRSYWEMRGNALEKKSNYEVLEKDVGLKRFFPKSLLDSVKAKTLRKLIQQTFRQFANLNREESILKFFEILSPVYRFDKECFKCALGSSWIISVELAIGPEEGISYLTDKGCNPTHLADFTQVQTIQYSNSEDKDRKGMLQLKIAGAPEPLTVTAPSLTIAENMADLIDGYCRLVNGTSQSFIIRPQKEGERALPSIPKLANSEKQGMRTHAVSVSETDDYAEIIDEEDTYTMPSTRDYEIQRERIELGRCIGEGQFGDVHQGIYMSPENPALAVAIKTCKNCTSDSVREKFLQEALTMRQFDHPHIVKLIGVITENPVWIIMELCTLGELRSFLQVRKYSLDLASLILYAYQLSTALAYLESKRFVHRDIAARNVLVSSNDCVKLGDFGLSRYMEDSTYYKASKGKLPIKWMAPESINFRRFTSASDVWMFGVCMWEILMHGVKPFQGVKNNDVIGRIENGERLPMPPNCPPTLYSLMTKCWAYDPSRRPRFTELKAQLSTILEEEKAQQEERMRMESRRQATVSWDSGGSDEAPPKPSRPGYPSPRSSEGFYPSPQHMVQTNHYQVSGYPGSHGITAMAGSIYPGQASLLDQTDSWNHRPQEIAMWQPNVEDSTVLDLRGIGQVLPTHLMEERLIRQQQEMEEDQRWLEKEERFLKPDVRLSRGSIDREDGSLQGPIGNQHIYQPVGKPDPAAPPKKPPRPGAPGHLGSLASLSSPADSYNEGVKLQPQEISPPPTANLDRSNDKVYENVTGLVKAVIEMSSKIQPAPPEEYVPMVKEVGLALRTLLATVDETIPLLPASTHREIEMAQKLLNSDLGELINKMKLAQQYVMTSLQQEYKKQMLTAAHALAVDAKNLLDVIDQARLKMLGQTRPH
The target in assay [8] is Cyclin-dependent kinase 1 (Homo sapiens, UniProt P06493).
Sequence of Cyclin-dependent kinase 1 (P06493 whole entry): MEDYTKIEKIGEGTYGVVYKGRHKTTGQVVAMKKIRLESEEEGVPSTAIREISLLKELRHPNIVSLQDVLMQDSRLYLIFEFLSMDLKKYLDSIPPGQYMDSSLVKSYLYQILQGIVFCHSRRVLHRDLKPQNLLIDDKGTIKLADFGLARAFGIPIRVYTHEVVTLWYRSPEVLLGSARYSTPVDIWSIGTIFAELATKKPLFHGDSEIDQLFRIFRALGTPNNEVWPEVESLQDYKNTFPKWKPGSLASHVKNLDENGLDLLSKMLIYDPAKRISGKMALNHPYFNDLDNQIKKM
The target of assay [9] is Cyclin-dependent kinase 2 (Homo sapiens, UniProt P24941).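 Also: CDK2 measured as one member of a broad kinome profiling panel.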
Assay [10] addresses Inhibitor of nuclear factor kappa-B kinase subunit alpha (Homo sapiens, UniProt O15111).
The target in assay [11] is Tyrosine-protein kinase Lck (Homo sapiens, UniProt P06239).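 Also: lck was assayed as one member of a kinase panel.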
Assay [12] has as its target Rho-associated protein kinase 2 (Homo sapiens, UniProt O75116).
Assay [13] addresses Vascular endothelial growth factor receptor 3 (Homo sapiens, UniProt P35916).

Active and inactive are the calls of the source.

Sequence of Activated CDC42 kinase 1 (Q07912 whole entry): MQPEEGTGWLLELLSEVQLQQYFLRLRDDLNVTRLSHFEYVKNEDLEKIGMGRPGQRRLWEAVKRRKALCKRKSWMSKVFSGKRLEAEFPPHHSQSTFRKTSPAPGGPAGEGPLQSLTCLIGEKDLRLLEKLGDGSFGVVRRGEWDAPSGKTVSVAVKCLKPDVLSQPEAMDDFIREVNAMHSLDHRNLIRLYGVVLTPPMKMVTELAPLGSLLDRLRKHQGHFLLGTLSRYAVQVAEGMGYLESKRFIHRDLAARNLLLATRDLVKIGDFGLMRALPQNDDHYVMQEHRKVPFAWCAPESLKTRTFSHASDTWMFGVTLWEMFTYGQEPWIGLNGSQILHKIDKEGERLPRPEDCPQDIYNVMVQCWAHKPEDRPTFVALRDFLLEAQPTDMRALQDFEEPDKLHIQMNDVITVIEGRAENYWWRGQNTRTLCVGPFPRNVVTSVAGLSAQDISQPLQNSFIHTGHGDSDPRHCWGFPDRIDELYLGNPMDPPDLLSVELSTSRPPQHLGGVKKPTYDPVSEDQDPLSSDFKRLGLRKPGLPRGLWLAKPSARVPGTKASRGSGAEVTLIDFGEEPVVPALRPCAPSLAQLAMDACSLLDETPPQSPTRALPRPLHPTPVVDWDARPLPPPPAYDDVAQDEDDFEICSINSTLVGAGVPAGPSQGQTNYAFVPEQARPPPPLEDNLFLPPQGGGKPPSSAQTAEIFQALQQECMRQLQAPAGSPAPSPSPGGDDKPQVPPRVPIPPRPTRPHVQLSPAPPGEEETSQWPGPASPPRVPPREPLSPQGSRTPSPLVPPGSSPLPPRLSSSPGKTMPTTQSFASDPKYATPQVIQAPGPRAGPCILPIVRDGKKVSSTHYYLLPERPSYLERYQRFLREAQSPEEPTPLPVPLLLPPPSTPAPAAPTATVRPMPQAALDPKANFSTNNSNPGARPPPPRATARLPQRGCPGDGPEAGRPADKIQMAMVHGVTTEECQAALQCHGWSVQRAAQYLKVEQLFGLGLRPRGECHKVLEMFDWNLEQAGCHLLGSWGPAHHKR
Sequence of Serine/threonine-protein kinase pim-1 (P11309 whole entry): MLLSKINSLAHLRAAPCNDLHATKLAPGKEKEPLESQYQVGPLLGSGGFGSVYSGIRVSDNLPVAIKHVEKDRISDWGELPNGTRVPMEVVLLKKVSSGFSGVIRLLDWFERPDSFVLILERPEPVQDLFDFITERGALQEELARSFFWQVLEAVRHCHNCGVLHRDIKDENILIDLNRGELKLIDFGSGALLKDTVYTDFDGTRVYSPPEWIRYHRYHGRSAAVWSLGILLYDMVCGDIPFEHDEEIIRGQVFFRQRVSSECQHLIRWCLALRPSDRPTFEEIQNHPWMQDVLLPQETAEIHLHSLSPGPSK
Sequence of Cyclin-dependent kinase 7 (P50613 whole entry): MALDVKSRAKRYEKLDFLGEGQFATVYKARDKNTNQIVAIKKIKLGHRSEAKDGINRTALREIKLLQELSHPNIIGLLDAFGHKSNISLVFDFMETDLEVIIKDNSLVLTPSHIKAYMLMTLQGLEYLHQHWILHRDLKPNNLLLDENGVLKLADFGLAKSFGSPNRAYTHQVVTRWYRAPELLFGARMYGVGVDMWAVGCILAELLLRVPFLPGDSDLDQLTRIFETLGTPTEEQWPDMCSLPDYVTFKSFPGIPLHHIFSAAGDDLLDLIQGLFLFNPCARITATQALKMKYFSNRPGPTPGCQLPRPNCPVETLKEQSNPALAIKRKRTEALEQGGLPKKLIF
Sequence of Vascular endothelial growth factor receptor 3 (P35916 whole entry): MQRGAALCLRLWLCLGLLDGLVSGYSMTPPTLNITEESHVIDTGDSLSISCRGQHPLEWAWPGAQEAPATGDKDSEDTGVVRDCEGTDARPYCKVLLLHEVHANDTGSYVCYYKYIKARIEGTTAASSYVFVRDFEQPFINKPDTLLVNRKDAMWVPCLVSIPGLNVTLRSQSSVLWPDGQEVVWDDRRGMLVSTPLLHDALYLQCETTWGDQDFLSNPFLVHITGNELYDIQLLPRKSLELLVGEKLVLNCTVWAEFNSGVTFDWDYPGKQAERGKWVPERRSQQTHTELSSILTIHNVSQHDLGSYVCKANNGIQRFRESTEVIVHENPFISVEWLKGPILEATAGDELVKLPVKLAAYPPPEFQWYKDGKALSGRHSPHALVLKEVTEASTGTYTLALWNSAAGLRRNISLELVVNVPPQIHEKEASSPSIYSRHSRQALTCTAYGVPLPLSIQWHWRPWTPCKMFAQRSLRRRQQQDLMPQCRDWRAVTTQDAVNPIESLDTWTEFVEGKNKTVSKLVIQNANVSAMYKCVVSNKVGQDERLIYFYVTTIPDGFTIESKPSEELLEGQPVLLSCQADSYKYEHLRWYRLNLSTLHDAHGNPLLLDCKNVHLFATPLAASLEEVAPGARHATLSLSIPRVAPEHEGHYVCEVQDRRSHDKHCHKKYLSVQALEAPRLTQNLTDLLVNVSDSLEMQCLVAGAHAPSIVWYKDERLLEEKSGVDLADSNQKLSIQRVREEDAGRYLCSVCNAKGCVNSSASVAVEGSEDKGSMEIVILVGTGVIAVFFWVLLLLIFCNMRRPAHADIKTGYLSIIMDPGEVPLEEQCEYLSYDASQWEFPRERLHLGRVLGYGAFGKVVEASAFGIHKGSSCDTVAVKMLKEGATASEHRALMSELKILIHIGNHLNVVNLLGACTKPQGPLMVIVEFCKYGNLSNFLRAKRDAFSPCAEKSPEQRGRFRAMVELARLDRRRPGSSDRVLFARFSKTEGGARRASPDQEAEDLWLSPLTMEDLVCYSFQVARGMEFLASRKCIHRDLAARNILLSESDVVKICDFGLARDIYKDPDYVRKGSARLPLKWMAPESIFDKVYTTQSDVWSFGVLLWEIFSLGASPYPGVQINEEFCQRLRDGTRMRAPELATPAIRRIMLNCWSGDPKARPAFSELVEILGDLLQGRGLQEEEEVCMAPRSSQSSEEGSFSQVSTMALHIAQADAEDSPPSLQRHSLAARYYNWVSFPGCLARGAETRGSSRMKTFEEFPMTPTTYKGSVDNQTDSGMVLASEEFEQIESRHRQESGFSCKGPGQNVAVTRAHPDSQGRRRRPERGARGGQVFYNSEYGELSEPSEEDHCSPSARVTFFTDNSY

Regarding `NC(=O)c1cc(-c2ccnc(N)n2)[nH]c1-c1ccc(Cl)cc1Cl`, the Ki (usually the dissociation constant of the complex between target and ligand, obtained from inhibition or displacement) in assay [1] was 0.158 µM (active); in assay [2], > 3.16 µM (inactive); in assay [3], 1.58 µM (active); at Activated CDC42 kinase 1, 1.26 µM (active); in assay [4], 0.0158 µM (active); in [5], > 6.31 µM (inactive). For the same compound, the pKi – broadly, the Ki on a negative log10 scale, so that one unit is a factor of ten – is 6.8 in [1], 5.8 in assay [3], 5.9 on Activated CDC42 kinase 1 and 7.8 in assay [4].

Turning to `Cc1ccc(-n2nc(C(C)(C)C)cc2NC(=O)Nc2ccc(OCCN3CCOCC3)c3ccccc23)cc1` [DORAMAPIMOD], the Ki in assay [6] was > 2.51 µM (inactive).

Consider `NC(COc1cncc(-c2ccc3c(c2)C(=Cc2ccco2)C(=O)N3)c1)Cc1c[nH]c2ccccc12` (centres undefined), for which the Ki was > 100 µM (inactive) in [7]; > 1.58 µM (inactive) on Focal adhesion kinase 1; 0.251 µM (active) in assay [8]; 0.126 µM (active) in assay [9]; 0.398 µM (active) in [10]; 0.398 µM (active) in [11]. In addition, the results for the inhibition constant (Ki) in assay [12] and in [13] were 0.0126 µM (active) and 0.0251 µM (active), respectively.

The record behind these values is ChEMBL document CHEMBL1201862, “PubChem BioAssay data set” (2004).
